According to patent publication US12195467B2, “Compound having TrkA inhibitory activity and pharmaceutical composition, for preventing or alleviating pain, containing same as active ingredient” (JBKLAB CO., LTD., priority 2018, dated 2025):

Assays:
TrkA = target: T1, TrkA (Homo sapiens, UniProt P04629); test: TrkA inhibitory activity, CycLex TrkA kinase assay/inhibitor screening kit; assay type: biochemical; settings: for inhibition at 1 µM: compound 1 μM, read-out: % inhibition rate (based on 1 μM)
T1 construct: purchased MBL International (CycLex) CY-1091
Protocol: The TrkA inhibitory activity of the compounds was evaluated using CycLex® TrkA kinase assay/inhibitor screening kit of MBL International (Cat No. CY-1091). The test was carried out according to the analysis method provided by the manufacturer. The test method is as follows.
1. 1× wash buffer was prepared by diluting 10× wash buffer in ddH2O.
2. 20×ATP solution (1.25 mM) was prepared by adding 1.6 mL of distilled water to the tube containing ATP dissolved in NA2 salt and freeze-dried.
4. A working solution mixture and a solution of the appropriate concentration of the example compound to evaluate the activity of the example compound were prepared and dispensed into a 96-well plate as shown in table below.
5. After dispensing the solutions into a 96-well plate, the plate was incubated at 30° C. for 30 minutes.
6. After incubation of the plate at 30° C. for 30 minutes, 200 μL of 1× wash buffer was added into each well of the plate, followed by washing. This process was repeated 5 times.
7. After washing the plate, 100 μL of HRP conjugated detection antibody (PX-39) was added into each well of the plate, followed by reaction at room temperature for 60 minutes.
8. Upon completion of the reaction, 200 μL of 1× wash buffer was added into each well of the plate, followed by washing. This process was repeated 5 times.
9. After washing the plate, 100 μL of substrate reagent containing chromogenic substrate and tetra-methylbenzidine (TMB) was added into each well of the plate, followed by incubation at room temperature for 5-15 minutes.
10. Upon completion of the reaction, 100 μL of stop solution (1 N H2SO4) was added into each well of the plate, followed by measuring OD450 within 30 minutes.

[1] = tested on: postoperative pain animal model; test: Pharmacological activity in postoperative pain model (von-Frey mechanical allodynia, 50% withdrawal threshold); assay type: in vivo, Sprague-Dawley male rats
Protocol: Sprague-Dawley male rats weighing around 150 g (Orient bio., Korea) were used. Rats were raised in an environment where a 12-hour light-dark cycle was maintained, 4 per transparent plastic cage covered with scob as bedding. Food and water were provided freely. To verify the analgesic effect of the example compounds, all rats were anesthetized with O2 delivered from the induction chamber at a ratio of 3:3 of isoflurane and operated. Anesthetized rats were placed on a 37° C. warm plate to prevent hypothermia during the operation. The ipsilateral sole (left) of the hind paw of the experimental animal was disinfected with 10% povidone-iodine solution, and incised to a length of 1 cm with a #11 surgical knife. The incision was made starting from 0.5 cm of the proximal edge of the heel through the skin and fascia on the side of the ipsilateral sole toward the toe. After the incision, a gentle pressure was applied to the incision site to stop the bleeding and the skin was sutured. The surgical site was sterilized with 10% povidone-iodine solution, and gentamicin (8 mg/kg) was administered intraperitoneally to prevent infection. The analgesic effect of the compound on postoperative pain was evaluated in the experimental animals 2 days after the surgery. […] The formula for calculating the 50% withdrawal threshold (g) is as follows. 50% Withdrawal threshold (g)=(10^(x+kd))/10^4 [Mathematical Formula 1] • x=the value of the last tested filament (log unit value). • k=the value indicating positive/negative reaction by up-down method. • d=the value fixed at 0.224 as the average difference between stimuli.

TrkB = target: T2, TrkB (Homo sapiens, UniProt Q16620); test: PathHunter eXpress TrkB functional assay kit (U2OS cells, agonist BDNF); assay type: cell-based; settings: for inhibition at 1 µM: compound 1 μM, read-out: TrkB % inhibition rate (based on 1 μM)
T2 construct: host or cells: U2OS
Protocol: (§1) The inhibitory activity of the example compounds against TrkB and TrkC was evaluated using PathHunter® eXpress TrkB or TrkC functional assay kit (Product Code: 93-0463E3 and 93-0464E3) of DiscoverX. The test was carried out according to the analysis method provided by the manufacturer. The test was carried out as follows over 2 or 3 days depending on the conditions of cells.
(§2) 1. Before starting the experiment, the cell plating (CP) reagent stored at −80° C. was dissolved in a 37° C. water bath.
(§3) 2. When the CP reagent was dissolved, cell vials for TrkB or TrkC were prepared to be dissolved.
(§4) 3. Two U2OS cell vials (TrkB kit & TrkC kit) stored in liquid nitrogen were thawed.
(§5) 4. 500 μL of CP reagent was added to the thawed cell vial, and the cells were sufficiently mixed by pipetting and transferred to a Conical tube in which 11.5 mL of CP reagent was dispensed.
(§6) 5. 12 mL cells (1×10^6 cells in CP reagent) were seeded on a 96-well tissue culture treated plate (100 μL/well), followed by culture in a 37° C., 5% CO2 humidified incubator for 24 hours or 48 hours.
(§7) Day 2 or Day 3: Treatment of Test Material
(§8) 1. Test material, agonist and antagonist were prepared as stock solutions according to the experiment design. • Test material: 10 mM Stock solution in DMSO • Antagonist (GNF-5837): 10 mM Stock solution in 1.8674 mL DMSO • Agonist: TrkB agonist→BDNF, TrkC agonist→NT-3
(§9) 2. 10 mM stock solutions of teat material and antagonist having the concentration of 22 times more concentrated than the final screening concentration were prepared according to the experiment design.
(§10) 3. Each well of the 96-well culture plate containing cells was treated with 5 μL of the solutions of teat material and antagonist having the concentration of 22 times more concentrated than the final screening concentration (#2), followed by incubation at 37° C. for 60 minutes.
(§11) 4. During the incubation, 10 μg/mL stock solution of each agonist for TrkB and TrkC was prepared using a reconstitution buffer for the purpose of the experiment, and each well of the plate was treated with 5 μL of the prepared solution, followed by incubation at 19-25° C. for 3 hours.
(§12) 5. During the incubation, a detection reagent working solution (4.75 ml Cell assay buffer, 1.25 ml Substrate Reagent 1, 0.25 ml Substrate Reagent 2) was prepared. Upon completion of the incubation, 55 μL of the working solution was added into each well of the plate.
(§13) 7. The plate was incubated at room temperature for 60 minutes in a dark place, and the […] was measured with a luminescence plate reader.

TrkC = target: T3, TrkC (Homo sapiens, UniProt Q16288); test: PathHunter eXpress TrkC functional assay kit (U2OS cells, agonist NT-3); assay type: cell-based; settings: compound 1 μM, read-out: TrkC % inhibition rate (based on 1 μM)
T3 construct: host or cells: U2OS
Protocol: as §1, §2, §3, §4, §5, §6, §7, §8, §9, §10, §11, §12, §13

T1 sequence (P04629 33-796): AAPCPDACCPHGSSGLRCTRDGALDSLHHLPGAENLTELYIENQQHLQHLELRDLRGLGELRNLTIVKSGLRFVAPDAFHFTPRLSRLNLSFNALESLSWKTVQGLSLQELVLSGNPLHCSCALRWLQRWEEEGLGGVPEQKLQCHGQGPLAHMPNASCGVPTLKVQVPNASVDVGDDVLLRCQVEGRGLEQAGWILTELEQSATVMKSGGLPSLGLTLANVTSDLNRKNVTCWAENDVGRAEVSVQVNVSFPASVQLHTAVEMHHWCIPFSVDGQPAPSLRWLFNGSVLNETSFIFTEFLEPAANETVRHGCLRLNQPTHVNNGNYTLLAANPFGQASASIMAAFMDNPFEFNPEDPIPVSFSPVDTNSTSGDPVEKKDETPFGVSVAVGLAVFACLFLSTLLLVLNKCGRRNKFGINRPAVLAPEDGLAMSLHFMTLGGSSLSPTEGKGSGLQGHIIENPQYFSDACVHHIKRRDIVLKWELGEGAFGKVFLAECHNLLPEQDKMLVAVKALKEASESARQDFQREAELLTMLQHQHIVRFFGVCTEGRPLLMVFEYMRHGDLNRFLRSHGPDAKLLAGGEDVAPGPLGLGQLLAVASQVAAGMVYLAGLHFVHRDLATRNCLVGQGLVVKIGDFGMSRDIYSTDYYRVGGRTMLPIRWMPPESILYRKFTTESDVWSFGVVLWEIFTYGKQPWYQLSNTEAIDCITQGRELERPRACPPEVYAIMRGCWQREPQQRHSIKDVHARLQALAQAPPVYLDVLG
T2 sequence (Q16620 32-822): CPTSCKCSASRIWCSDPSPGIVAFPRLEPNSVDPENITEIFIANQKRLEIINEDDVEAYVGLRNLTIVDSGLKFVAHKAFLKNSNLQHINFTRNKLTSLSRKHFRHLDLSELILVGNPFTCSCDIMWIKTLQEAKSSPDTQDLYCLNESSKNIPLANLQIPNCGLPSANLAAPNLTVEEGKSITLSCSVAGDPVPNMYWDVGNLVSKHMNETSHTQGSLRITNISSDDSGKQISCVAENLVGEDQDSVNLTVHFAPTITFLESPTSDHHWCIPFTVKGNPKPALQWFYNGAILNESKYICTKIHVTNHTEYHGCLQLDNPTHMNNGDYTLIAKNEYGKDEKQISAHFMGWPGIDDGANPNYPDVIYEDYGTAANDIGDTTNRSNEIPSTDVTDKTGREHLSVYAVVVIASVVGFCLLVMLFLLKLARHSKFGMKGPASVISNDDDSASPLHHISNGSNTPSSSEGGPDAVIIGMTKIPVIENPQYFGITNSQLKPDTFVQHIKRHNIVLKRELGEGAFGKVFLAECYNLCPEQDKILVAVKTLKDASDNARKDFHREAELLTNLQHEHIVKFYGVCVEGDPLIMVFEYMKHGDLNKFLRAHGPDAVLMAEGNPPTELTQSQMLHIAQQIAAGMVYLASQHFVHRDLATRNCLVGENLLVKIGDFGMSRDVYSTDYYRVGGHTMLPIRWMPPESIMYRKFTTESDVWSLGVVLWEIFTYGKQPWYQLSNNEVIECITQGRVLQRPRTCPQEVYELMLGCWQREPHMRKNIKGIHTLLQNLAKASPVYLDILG
T3 sequence (Q16288 32-839): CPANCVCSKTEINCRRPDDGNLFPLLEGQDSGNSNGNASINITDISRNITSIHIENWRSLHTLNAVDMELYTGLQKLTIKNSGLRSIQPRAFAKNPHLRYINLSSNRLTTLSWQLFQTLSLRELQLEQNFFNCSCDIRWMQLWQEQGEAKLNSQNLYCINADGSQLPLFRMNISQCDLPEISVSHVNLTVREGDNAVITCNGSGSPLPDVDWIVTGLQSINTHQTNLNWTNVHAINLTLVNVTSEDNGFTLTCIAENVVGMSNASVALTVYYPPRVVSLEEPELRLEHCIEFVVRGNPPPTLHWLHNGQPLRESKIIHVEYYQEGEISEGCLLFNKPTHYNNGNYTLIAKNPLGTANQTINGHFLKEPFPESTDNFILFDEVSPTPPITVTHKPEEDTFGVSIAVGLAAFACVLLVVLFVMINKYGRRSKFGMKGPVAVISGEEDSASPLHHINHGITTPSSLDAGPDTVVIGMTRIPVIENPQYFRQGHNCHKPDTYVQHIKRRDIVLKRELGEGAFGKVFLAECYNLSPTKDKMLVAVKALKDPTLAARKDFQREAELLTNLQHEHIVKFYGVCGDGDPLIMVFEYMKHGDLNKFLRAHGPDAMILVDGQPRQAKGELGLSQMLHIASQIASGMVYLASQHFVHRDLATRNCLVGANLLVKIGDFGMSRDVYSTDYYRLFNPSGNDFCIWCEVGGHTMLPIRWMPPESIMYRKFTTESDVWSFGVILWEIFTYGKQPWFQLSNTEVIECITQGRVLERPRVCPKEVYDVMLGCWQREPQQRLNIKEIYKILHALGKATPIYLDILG

Compound: COc1ccc(Cn2cc(NC(=O)c3ccc(N4CCN(C)CC4)cc3)c3c(-c4cnn(C5CCNCC5)c4)ncnc32)cc1 [Example 16, N-(7-(4-methoxybenzyl)-4-(1-(piperidine-4-yl)-1H-pyrazole-4-yl)-7H-pyrrolo[2,3-d]pyrimidine-5-yl)-4-(4-methylpiperazine-1-yl)benzamide]
- inhibition at 1 µM (TrkA): 8%

Compound: CC(C)C[C@H](CN)CC(=O)O [Lyrica, Pregabalin, reference compound]
- ED50 ([1]; Rattus norvegicus, po, 48 h): 17.5 mg/kg
- Maximum duration of drug efficacy ([1]; oral, rat postoperative pain model, 2 days after surgery): 1.0 h

Compound: CN1CCN(c2ccc(C(=O)Nc3c[nH]c4ncnc(N5CCC(C(N)=O)CC5)c34)cc2)CC1 [Example 20, 1-(5-(4-(4-methylpiperazine-1-yl)benzamido)-7H-pyrrolo[2,3-d]pyrimidine-4-yl)piperidine-4-carboxamide]
- inhibition at 1 µM (TrkA): 4%

Compound: Clc1cccc(Nc2n[nH]c3cnc(-c4cccnc4)cc23)c1 [Example 1, N-(3-chlorophenyl)-5-(pyridine-3-yl)-1H-pyrazolo[3,4-c]pyridine-3-amine]
- inhibition at 1 µM (TrkA): 12%

Compound: CN1CCN(c2ccc(C(=O)Nc3c[nH]c4ncnc(-c5cnn(C6CCN(C(=O)OC(C)(C)C)CC6)c5)c34)cc2)CC1 [Example 18, tert-butyl 4-(4-(5-(4-(4-methylpiperazine-1-yl)benzamido)-7H-pyrrolo[2,3-d]pyrimidine-4-yl)-1H-pyrazole-1-yl)piperidine-1-carboxylate]
- inhibition at 1 µM (TrkA): 24%

Compound: Clc1cc(Cl)cc(Nc2n[nH]c3cnc(-c4cnn(C5CCNCC5)c4)cc23)c1 [Example 3, N-(3,5-dichlorophenyl)-5-(1-(piperidine-4-yl)-1H-pyrazole-4-yl)-1H-pyrazolo[3,4-c]pyridine-3-amine]
- inhibition at 1 µM (TrkA): 6%

Compound: Oc1c(Cl)cc(-c2c[nH]c3ncnc(NC4CCC(O)CC4)c23)cc1Cl (stereo not drawn) [Example 23, 2,6-dichloro-4-(4-((1s,4s)-4-hydroxycyclohexylamino)-7H-pyrrolo[2,3-d]pyrimidine-5-yl)phenol]
- IC50 (TrkA): 0.0579 µM
- inhibition at 1 µM (TrkA): 100%
- IC50 (TrkB): 0.894 µM
- inhibition at 1 µM (TrkB): 56%
- inhibition at 1 µM (TrkC): 15%

Compound: CN1CCN(c2ccc(C(=O)Nc3c[nH]c4ncnc(-c5cnn(C6CCNCC6)c5)c34)cc2)CC1 [Example 17, 4-(4-methylpiperazine-1-yl)-N-(4-(1-(piperidine-4-yl)-1H-pyrazole-4-yl)-7H-pyrrolo[2,3-d]pyrimidine-5-yl)benzamide]
- inhibition at 1 µM (TrkA): -11%

Compound: CN1CCN(c2ccc(C(=O)Nc3c[nH]c4ncnc(N5CCCC(NC(N)=O)C5)c34)cc2)CC1 (stereo not drawn) [Example 21, 4-(4-methylpiperazine-1-yl)-N-(4-(3-ureidopiperidine-1-yl)-7H-pyrrolo[2,3-d]pyrimidine-5-yl)benzamide]
- inhibition at 1 µM (TrkA): 0%

Compound: CN1CCN(c2ccc(C(=O)Nc3c[nH]c4ncnc(-c5cc(Cl)c(O)c(Cl)c5)c34)cc2)CC1 [Example 24, N-(4-(3,5-dichloro-4-hydroxyphenyl)-7H-pyrrolo[2,3-d]pyrimidine-5-yl)-4-(4-methylpiperazine-1-yl)benzamide]
- inhibition at 1 µM (TrkA): 49%

Compound: Cn1cc(-c2cnc3[nH]nc(Nc4cc(Cl)cc(Cl)c4)c3c2)cn1 [Example 6, N-(3,5-dichlorophenyl)-5-(1-methyl-1H-pyrazole-4-yl)-1H-pyrazolo[3,4-b]pyridine-3-amine]
- inhibition at 1 µM (TrkA): 32%

Compound: Cn1cc(-c2cnc3[nH]nc(Nc4cccc(Cl)c4)c3c2)cn1 [Example 4, N-(3-chlorophenyl)-5-(1-methyl-1H-pyrazole-4-yl)-1H-pyrazolo[3,4-b]pyridine-3-amine]
- inhibition at 1 µM (TrkA): 59%

Compound: Clc1ccc(Nc2n[nH]c3cnc(-c4cnn(C5CCNCC5)c4)cc23)cc1Cl [Example 2, N-(3,4-dichlorophenyl)-5-(1-(piperidine-4-yl)-1H-pyrazole-4-yl)-1H-pyrazolo[3,4-c]pyridine-3-amine]
- inhibition at 1 µM (TrkA): 6%

Compound: Clc1cc(Cl)cc(Nc2n[nH]c3ncc(-c4cnn(C5CCNCC5)c4)cc23)c1 [Example 7, N-(3,5-dichlorophenyl)-5-(1-(piperidine-4-yl)-1H-pyrazole-4-yl)-1H-pyrazolo[3,4-b]pyridine-3-amine]
- inhibition at 1 µM (TrkA): 37%

Compound: O=C(Nc1n[nH]c2ncc(-c3cnn(C4CCNCC4)c3)cc12)c1ccc(F)cc1 [Example 22, 4-fluoro-N-(5-(1-(piperidine-4-yl)-1H-pyrazole-4-yl)-1H-pyrazolo[3,4-b]pyridine-3-yl)benzamide]
- IC50 (TrkA): 0.436 µM
- inhibition at 1 µM (TrkA): 99%
- inhibition at 1 µM (TrkB): -2%
- inhibition at 1 µM (TrkC): 20%

Compound: Cn1cc(-c2cnc3[nH]nc(Nc4ccc(Cl)c(Cl)c4)c3c2)cn1 [Example 5, N-(3,4-dichlorophenyl)-5-(1-methyl-1H-pyrazole-4-yl)-1H-pyrazolo[3,4-b]pyridine-3-amine]
- inhibition at 1 µM (TrkA): 32%

Compound: CC(C)NC(=O)Nc1cccc(-c2cnc3[nH]nc(NC(=O)c4ccc(N5CCN(C)CC5)cc4)c3c2)c1 [Example 9, N-(5-(3-(3-isopropylureido)phenyl)-1H-pyrazolo[3,4-b]pyridine-3-yl)-4-(4-methylpiperazine-1-yl)benzamide]
- inhibition at 1 µM (TrkA): 81%
- inhibition at 1 µM (TrkB): 1%
- inhibition at 1 µM (TrkC): -20%

Compound: CN1CCN(c2ccc(C(=O)Nc3c[nH]c4ncnc(N5CCC(N6CCCC6)CC5)c34)cc2)CC1 [Example 19, 4-(4-methylpiperazine-1-yl)-N-(4-(4-(pyrrolidine-1-yl)piperidine-1-yl)-7H-pyrrolo[2,3-d]pyrimidine-5-yl)benzamide]
- inhibition at 1 µM (TrkA): -1%

Compound: CN1CCN(c2ccc(C(=O)Nc3n[nH]c4ncc(-c5cnn(C6CCNCC6)c5)cc34)cc2)CC1 [Example 8, 4-(4-methylpiperazine-1-yl)-N-(5-(1-(piperidine-4-yl)-1H-pyrazole-4-yl)-1H-pyrazolo[3,4-b]pyridine-3-yl)benzamide]
- inhibition at 1 µM (TrkA): 99%

Compound: CN1CCN(c2ccc(C(=O)Nc3n[nH]c4ncc(-c5ccc(F)cc5)cc34)cc2)CC1 [Example 11, N-(5-(4-fluorophenyl)-1H-pyrazolo[3,4-b]pyridine-3-yl)-4-(4-methylpiperazine-1-yl)benzamide]
- IC50 (TrkA): 0.218 µM
- inhibition at 1 µM (TrkA): 99%
- inhibition at 1 µM (TrkB): 17%
- inhibition at 1 µM (TrkC): 9%
